Read-outs that look alike come from different tables or passages of the source.
Columns and labels:
S. aureus (MTCC 737) = assay: Minimum Inhibitory Concentration, micro-dilution broth; type: cell-based, Staphylococcus aureus; details: for Minimum Inhibitory Concentration S. aureus: Drug sensitive bacteria
Experimental: (§1) Microorganisms and Culture Conditions: Bacterial strains, S. aureus (MTCC 737) and E. coli (MTCC 443) are purchased from MTCC (Chandigarh, India). MRSA (ATCC 33591), Pseudomonas aeruginosa (ATCC 4676), […]-lactamase producing and drug-resistant Klebsiella pneumonia (ATCC700603), Enterococcus faecium (ATCC 19634) and vancomycin resistant Enterococcus faecium (ATCC 51559) are obtained from ATCC (Rockville, Md., USA).
(§2) E. coli is cultured in Luria Bertani broth (10 g of tryptone, 5 g of yeast extract, and 10 g of NaCl in 1000 mL of sterile distilled water (pH −7) while S. aureus, Pseudomonas aeruginosa (ATCC 4676) and MRSA are grown in Yeast-dextrose broth (1 g of beef extract, 2 g of yeast extract, 5 g of peptone and 5 g of NaCl in 1000 mL of sterile distilled water). For all Enterococcus faecium, Brain Heart Infusion broth (BHI) is used. For solid media 5% agar was used along with above mentioned composition. K. pneumonia was grown in nutrient media (3 g of beef extract and 5 g of peptone in 1000 mL of sterile distilled water). The bacterial samples were freeze dried and stored at −80° C. 5 μl of these stocks were added to 3 mL of the nutrient broth and the culture was grown for 6 h at 37° C. prior to the experiments.
(§3) Antibacterial activity is reported as Minimum Inhibitory Concentration (MIC), i.e. the lowest concentration of the antimicrobial agent that will inhibit the growth of a microorganism after overnight incubation. Water-soluble ACK, NCK and BCK series of compounds are assayed in a modified micro-dilution broth format. Stock solutions are made by serially diluting the compounds using autoclaved Millipore water. Bacteria, to be tested are grown for about 6 hrs in the suitable media containing ˜10^9 cfu/mL (determined through dilution plate technique by spread plate method), which is then diluted to 10^5 cfu/mL using nutrient media. 50 μL of serially diluted compound is added to a 96 well plate containing 150 μL bacterial solutions. Two controls are made; one containing 150 μL of media and 50 μL of compound and the other containing 200 μL of bacterial solution. […] MIC value is determined by taking the average of triplicate O.D. values for each concentration and plotting it against concentration using Origin Pro 8.0 software. The data is then subjected to sigmoidal fitting. From the curve, MIC value is determined, as the point in the curve where the O.D. is similar to that of control having no bacteria. The MIC values and errors of independent experiments are reported as average and standard deviation of triplicates.

human RBCs = assay: Haemolytic activity (HC50); type: cell-based
Experimental: Erythrocytes are isolated from freshly drawn, heparinized human blood and re-suspended to 5 vol % in PBS (pH 7.4). In a 96-well microtiter plate, 150 μl of erythrocyte suspension is added to 50 μl of serially diluted compound. Two controls are made, one without compound and other with 50 μl of 1 vol % solution of Triton X-100. The plate is incubated for about 1 hr at a temperature of about 37° C. The plate is then centrifuged at 3,500 rpm for about 5 min, 100 μl of the supernatant from each well is transferred to a fresh microtiter plate, and absorbance at 540 nm is measured. Percentage of hemolysis is determined as (A−A0)/(Atotal−A0)×100, where A is the absorbance of the test well, A0 the absorbance of the negative controls (without compound), and A total the absorbance of 100% hemolysis wells (with Triton X-100), when absorbance is read at 540 nm.
Toxicity studies of the compounds are carried out on freshly drawn human RBCs. Toxicity of the antimicrobial compounds of the present disclosure is defined by their HC50 values illustrated in Table 3, i.e. the concentration of compound at which 50% of the blood cells are lysed. Haemolytic studies conducted herein illustrates that the antimicrobial compounds provided by the instant disclosure are selective towards drug sensitive bacteria and drug resistant bacteria over human RBCs, thus establishing the non-toxicity of the present compounds.

MRSA (ATCC 33591) = assay: Minimum Inhibitory Concentration, micro-dilution broth; type: cell-based, Methicillin resistant S. aureus; details: for Minimum Inhibitory Concentration MRSA: Drug resistant bacteria
Experimental: as §1, §2, §3

[1] = system: drug-resistant Klebsiella pneumonia (ATCC700603); assay: as above; type: cell-based; details: for Minimum Inhibitory Concentration K. pneumonia: Drug resistant bacteria
Experimental: as §1, §2, §3

[2] = system: vancomycin resistant Enterococcus faecium (ATCC 51559); assay: as above; type: cell-based; details: for Minimum Inhibitory Concentration VRE: Drug resistant bacteria
Experimental: as §1, §2, §3

[3] = system: Pseudomonas aeruginosa (ATCC 4676); assay: as above; type: cell-based; details: for Minimum Inhibitory Concentration P. aeruginosa: Drug sensitive bacteria
Experimental: as §1, §2, §3

[4] = system: Enterococcus faecium (ATCC 19634); assay: as above; type: cell-based; details: for Minimum Inhibitory Concentration E. faecium: Drug sensitive bacteria
Experimental: as §1, §2, §3

E. coli (MTCC 443) = assay: as above; type: cell-based, Escherichia coli; details: for Minimum Inhibitory Concentration E. coli: Drug sensitive bacteria
Experimental: as §1, §2, §3

[5] = concentration at which 50% of the blood cells are lysed, human RBCs

Compound | Minimum Inhibitory Concentration S. aureus (S. aureus (MTCC 737)) [µg/mL] | HC50 (human RBCs; [5]) [µg/mL] | Minimum Inhibitory Concentration MRSA (MRSA (ATCC 33591)) [µg/mL] | Minimum Inhibitory Concentration K. pneumonia [1] [µg/mL] | Minimum Inhibitory Concentration VRE [2] [µg/mL] | MIC value against P. aeruginosa [3] | Minimum Inhibitory Concentration P. aeruginosa [3] [µg/mL] | Minimum Inhibitory Concentration E. faecium [4] [µg/mL] | Minimum Inhibitory Concentration E. coli (E. coli (MTCC 443)) [µg/mL] | MIC value against S. aureus (S. aureus (MTCC 737)) | MIC value against methicillin-resistant S. aureus (MRSA (ATCC 33591)) | MIC value against K. pneumonia [1] | MIC value against vancomycin-resistant E. faecium [2] | MIC value against E. faecium [4] | MIC value against E. coli (E. coli (MTCC 443)) | HC50 (human RBCs) [µg/mL]
CCN(Cc1c2ccccc2c(Cl)c2ccccc12)C(=O)C(N)CCCCN.O=C(O)C(F)(F)F (stereo not drawn) [ACK-2, Lys-N-ethyl-10-Aminomethyl-9-chloroanthracene trifluoroacetate] | 11 | 118 | 21 | 31 | 7.2 | about 4 μg/ml | 4 | 13.6 | 25 |  |  |  |  |  |  | 
CCCCCCN(Cc1c2ccccc2c(Cl)c2ccccc12)C(=O)C(N)CCCCN.O=C(O)C(F)(F)F (stereo not drawn) [ACK-6, Lys-N-hexyl-10-Aminomethyl-9-chloroanthracene trifluoroacetate] | 2.4 | 82 | 2.8 | 16 | 5.2 | ~1.6 µg/mL | 1.6 | 3.3 | 3.5 | ~2.4 µg/mL | ~2.8 µg/mL | ~16 µg/mL | ~5.2 µg/mL | ~3.3 µg/mL | ~3.5 µg/mL | 
CCCCCCCCCCCCN(Cc1ccccc1)C(=O)C(N)CCCCN.O=C(O)C(F)(F)F (stereo not drawn) [BCK-12, Lys-N-dodecyl-1-Aminomethylbenzene trifluoroacetates] | 2.7 | 45 | 2.9 | 2.8 | 3.3 | about 4 μg/ml | 4 | 2.6 | 5 | ~2.7 µg/mL | ~2.9 µg/mL | ~2.8 µg/mL | ~3.3 µg/mL | ~2.6 µg/mL | ~5 µg/mL | 
CCCCCCCCN(Cc1ccc(-c2ccccc2)cc1)C(=O)C(N)CCCCN (stereo not drawn) [Compound 6c, Lys-N-octyl-1-Aminomethylbiphenyl] | 1.3 |  |  |  |  |  |  |  |  |  |  |  |  |  |  | 
CCCCCCN(Cc1ccccc1)C(=O)[C@@H](N)CCCCN.O=C(O)C(F)(F)F [BCK-6, Lys-N-hexyl-1-Aminomethylbenzene trifluoroacetate] | >100 |  | >100 | >100 |  |  | >100 | >100 | >100 |  |  |  |  |  |  | >1000
CCCCN(Cc1ccc(-c2ccccc2)cc1)C(=O)[C@@H](N)CCCCN [Compound 6a, Lys-N-Butyl-1-Aminomethylbiphenyl] | 60 |  |  |  |  |  |  |  |  |  |  |  |  |  |  | 
CCCCCCCCCCN(Cc1c2ccccc2c(Cl)c2ccccc12)C(=O)[C@@H](N)CCCCN.O=C(O)C(F)(F)F [ACK-10, Lys-N-decyl-10-Aminomethyl-9-chloroanthracene trifluoroacetate] | 7.1 | 71 | 4.6 | 7.6 | 5.6 |  | 11 | 4.9 | 26 | ~7.1 µg/mL | ~4.6 µg/mL | ~7.6 µg/mL | ~5.6 µg/mL | ~4.9 µg/mL |  | 
CCCCCCCCN(Cc1cccc2ccccc12)C(=O)C(N)CCCCN.O=C(O)C(F)(F)F (stereo not drawn) [NCK-8, Lys-N-octyl-1-Aminomethylnaphthalene trifluoroacetate] | 6.3 | 60 | 4.4 | 13 | 7 | ~5.4 µg/mL | 5.4 | 5.5 | 5 | about 6.3 μg/ml | about 4.4 μg/ml | about 13 μg/ml | about 7 μg/ml | about 5.5 μg/ml | about 5 μg/ml | 
CCCCN(Cc1c2ccccc2c(Cl)c2ccccc12)C(=O)C(N)CCCCN.O=C(O)C(F)(F)F (stereo not drawn) [ACK-4, Lys-N-butyl-10-Aminomethyl-9-chloroanthracene trifluoroacetate] | 5.3 | 91 | 6.3 | 17 | 5.3 | ~1.9 µg/mL | 1.9 | 4.5 | 4.8 | about 5.3 μg/ml | about 6.3 μg/ml | about 17 μg/ml | about 5.3 μg/ml | about 4.5 μg/ml | about 4.8 μg/ml | 
CCCCCCCCN(Cc1c2ccccc2cc2ccccc12)C(=O)[C@@H](N)CCCCN.O=C(O)C(F)(F)F [Compound 8c, Lys-N-octyl-9-Aminomethylanthracene trifluoroacetate] | 2.2 |  | 3.6 |  |  |  |  |  |  |  |  |  |  |  |  | 42
CCCCN(Cc1ccccc1)C(=O)[C@@H](N)CCCCN.O=C(O)C(F)(F)F [BCK-4, Lys-N-butyl-1-Aminomethylbenzene trifluoroacetate] | >100 |  | >100 | >100 |  |  | >100 | >100 | >100 |  |  |  |  |  |  | >1000
CCCCCCN(Cc1ccc(-c2ccccc2)cc1)C(=O)[C@@H](N)CCCCN [Compound 6b, Lys-N-hexyl-1-Aminomethylbiphenyl] | 7.5 |  |  |  |  |  |  |  |  |  |  |  |  |  |  | 

From patent US9783490B2, “Antimicrobial compounds, their synthesis and applications thereof” (The Secretary of State for Health, priority 2012, dated 2017)
